Measurements taken from patent US7994291B2, “Human E3α ubiquitin ligase family” (Amgen Inc., priority 2000, dated 2011).
Entries after “also recorded” stand apart in the source; their conditions may differ.

Experiments:
muE3αII = test: Northern blot of muE3αII mRNA in cytokine-treated C2C12 myotubes; assay type: cell-based, mouse; settings: 10 ng/ml cytokine for 3 days and 5 days, differentiated C2C12 myotubes vs untreated
Protocol: Treatment with the proinflammatory cytokines, TNFα and IL-6, caused the induction of […] in C2C12 myotube cultures. C2C12 myoblasts were cultured in 100-mm dishes in an atmosphere of 5% CO2 at 37° C. in DMEM supplemented with 10% FBS and L-glutamine to reach 100% confluence. Myoblast differentiation was induced with DMEM supplemented with 2% horse serum and L-glutamine for 96 hours. Differentiated myotubes were then treated with TNFα (10 ng/ml; R&D Systems cat no. 210-TA) or IL-6 (10 ng/ml; R&D Systems cat no. 206-IL) for 3 days and 5 days.
After the 3 or 5 day incubation, RNA from differentiated C2C12 cultures was isolated with Trizol Reagent and Northern blot analysis was carried out as described in Example 11. Isolated RNA from untreated C2C12 cultures were used as a control. The blots were hybridized with a ^32P-labeled cDNA probes specific for muE3αI (lower panels) and muE3αII (upper panels). The probes were generated as described in Example 12.

[1] = test system: differentiated C2C12 cells; test: 125I-ubiquitin conjugation of cellular proteins in cytokine-treated differentiated C2C12 myotubes; assay type: cell-based, murine
Protocol: To further substantiate the enzymatic activity of huE3αI and huE3αII, ubiquitin conjugation to endogenous cellular proteins were measured in cultured muscle cell lines. Cultures of murine C2C12 or rat L6 myotube cells (ATCC accession nos. CRL-1772 and CRL-1458, respectively) were transfected with huE3αI or huE3αII full length cDNA under control of the CMV promoter using Lipofectamine 2000 Reagent (Gibco). Mock transfection with the pcDNA3.1 vector without a cDNA insert was performed as a control. Cell lysates were prepared as described above for the 293T cells and the resulting supernatants were used in ubiquitin conjugation reactions. For each reaction, 30 μg of C2C12or L6 myotube cell lysate was incubated with ^125I-ubiquitin (0.15 mg/ml, approximately ×10^7 cpm) in a total volume of 25-30 μl in a buffer containing 50 mM Tris, pH 8.0, 2 mM DTT, 5 mM MgCl2, 2 mM adenosine 5′-[-thio]triphosphate (ATP S), 50 μg/ml ubiquitin aldehyde, 20 μg/ml MG132 and protease inhibitor cocktail (Sigma P8340) at 37° C. for 30 minutes. Reactions were stopped by adding sample buffer and were subjected to 12% SDS PAGE. The gels were then dried and autoradiographed.
C2C12 cells were differentiated for 5 days to allow formation of myotubes. The differentiated myotubes were treated with 2 ng/ml of IL-6 for 5, 24 or 48 hours. […]

E3α = test: 125I-ubiquitin conjugation to endogenous muscle proteins in Fraction II of muscle extracts from YAH tumor-bearing rats, with E3α inhibitor; assay type: biochemical, rat; settings: 10 mM inhibitor, 20 μg/ml bestatin, 37° C., 20 minutes, Fraction II of gastrocnemius muscle extract
Protocol: The rate of ubiquitin conjugation of the endogenous muscle proteins were carried out as described in Example 10 using the skeletal muscles from the YAH tumor-bearing rats. The frozen gastrocnemius muscles collected (via dissection at sacrifice) from 6 tumor-bearing rats were combined. The muscle extracts (20% weight/volume) were prepared by homogenizing the muscles in a buffer containing 50 mM Tris HCl (pH 8.00), 5 mM MgCl2, 2 mM DTT, protease inhibitor cocktail (Sigma P8340) and 10% glycerol. The homogenates were then centrifuged at 40,000 g for 1 hr and the resulting supernatants were used as crude muscle extracts.
For some assays, the crude muscle extracts were fractionated further by chromatography on DEAE-cellulose (Whatman, Clifton, N.J.) to remove endogenous ubiquitin as described by Soloman et al. (Proc. natl. Acad. Sci. U.S.A., 95: 12602-7, 1998). The bound material Fraction II, which contained most of the ubiquitin conjugating enzymes were eluted with 50 mM Tris, pH 8.0 containing 0.5M NaCl and 1 mM DTT. Both crude extracts and Fraction II were dialyzed prior to use for ubiquitination assay against buffer containing 20 mM Tris, pH 8.0, 2 mM DTT, 5 mM MgCl2, and 10% glycerol and stored at […] until use. Crude muscle extracts were used for ubiquitin conjugation to ^125I-α-lactalbumin. […]

Compound | expression of muE3αII mRNA (muE3αII) | ubiquination of cellular proteins ([1]; 2 ng/ml IL-6 for 5, 24 or 48 hours, detectable 5 hours post-treatment, time dependent) | 125I-ubiquitin conjugation of cellular proteins ([1]; TNFα 0, 3, 6, 10, 20 ng/ml for one hour) | effect on accelerated muscle protein ubiquitination of tumor-bearing rats (E3α)
IL-6: proinflammatory cytokine (R&D Systems cat no. 206-IL) | markedly increased | marked increase | – | –
TNFα | markedly increased | – | dose dependent increase | –
COC(=O)[C@@H](N)CCCNC(=N)N [arginine methylester, arginine methyl ester] | – | – | – | virtually abolished the accelerated ubiquitination activity; also recorded: virtually abolished all the increased ubiquitination activities
